Reference: ChEMBL document CHEMBL5329208 (RSC Med Chem, 2023)
The source made the active and inactive calls. The calls are words filed in the database; no cut-off is given here.

Key:
[1] = Cytotoxicity against human HePAD38 cells assessed as reduction in cell viability by CCK-8 assay; assay type: toxicity, cell-based
Hepatitis B virus [2] = assay: Antiviral activity against HBV infected human HePAD38 cells assessed as reduction of HBV DNA level with compound replacement for every 3 days and measured on day 6 by qPCR analysis; assay type: functional, organism-based
[3] = Selectivity index, ratio of CC50 for cytotoxicity against human HePAD38 cells assessed as reduction in cell viability to EC50 for antiviral activity against HBV infected human HePAD38 cells assessed as reduction of HBV DNA level; assay type: toxicity, cell-based; conditions: read-out: Ratio CC50/EC50
CYP2C19 = CYP2C19 (Homo sapiens, UniProt P33261); assay: Inhibition of CYP2C19 (unknown origin) at 10 uM using s-mephenytoin as substrate incubated for 10 mins in presence of NADPH by LC-MS/MS analysis relative to control; assay type: ADME; conditions: probe S-mephenytoin
Sequence of CYP2C19 (P33261 whole entry): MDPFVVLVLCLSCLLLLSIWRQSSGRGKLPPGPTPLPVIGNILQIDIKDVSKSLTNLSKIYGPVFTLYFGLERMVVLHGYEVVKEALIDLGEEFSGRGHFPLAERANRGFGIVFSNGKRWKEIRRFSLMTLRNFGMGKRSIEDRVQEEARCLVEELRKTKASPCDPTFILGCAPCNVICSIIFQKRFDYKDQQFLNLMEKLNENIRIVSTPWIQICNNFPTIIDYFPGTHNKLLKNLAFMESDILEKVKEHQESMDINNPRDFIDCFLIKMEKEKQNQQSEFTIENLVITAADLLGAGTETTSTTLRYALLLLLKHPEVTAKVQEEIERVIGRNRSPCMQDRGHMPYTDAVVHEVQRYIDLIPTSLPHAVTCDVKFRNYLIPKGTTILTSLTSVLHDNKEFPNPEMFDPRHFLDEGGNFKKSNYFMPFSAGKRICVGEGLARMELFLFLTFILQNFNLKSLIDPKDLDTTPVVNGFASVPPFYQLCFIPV

CYP2D6 = CYP2D6 (Homo sapiens, UniProt P10635); assay: Inhibition of CYP2D6 (unknown origin) at 10 uM using dextromethorphan as substrate incubated for 10 mins in presence of NADPH by LC-MS/MS analysis relative to control; assay type: ADME; conditions: probe dextromethorphan
Sequence of CYP2D6 (P10635 whole entry): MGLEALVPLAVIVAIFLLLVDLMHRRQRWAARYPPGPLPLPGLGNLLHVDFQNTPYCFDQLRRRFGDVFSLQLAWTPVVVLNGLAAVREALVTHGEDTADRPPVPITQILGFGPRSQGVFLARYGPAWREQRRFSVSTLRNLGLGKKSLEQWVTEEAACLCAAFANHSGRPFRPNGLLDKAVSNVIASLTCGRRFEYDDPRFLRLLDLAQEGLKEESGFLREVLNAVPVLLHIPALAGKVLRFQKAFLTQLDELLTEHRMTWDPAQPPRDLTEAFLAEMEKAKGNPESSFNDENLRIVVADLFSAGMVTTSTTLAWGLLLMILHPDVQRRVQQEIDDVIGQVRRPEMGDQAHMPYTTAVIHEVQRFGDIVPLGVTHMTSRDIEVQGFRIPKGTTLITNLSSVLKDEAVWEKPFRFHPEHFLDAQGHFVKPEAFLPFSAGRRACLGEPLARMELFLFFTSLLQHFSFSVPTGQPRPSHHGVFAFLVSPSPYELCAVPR

[4] = Metabolic stability in human liver assessed as intrinsic clearance preincubated for 10 mins followed by NADPH addition and measured after 60 mins by LC-MS/MS analysis; assay type: ADME, tissue-based; conditions: time 70 min, read-out: CLH
[5] = Metabolic stability in human liver microsome assessed as intrinsic clearance preincubated for 10 mins followed by NADPH addition and measured after 60 mins by LC-MS/MS analysis; assay type: ADME; conditions: liver microsomes, time 70 min, read-out: CLH
[6] = Metabolic stability in human liver microsome assessed as half life preincubated for 10 mins followed by NADPH addition and measured after 60 mins by LC-MS/MS analysis; assay type: ADME; conditions: liver microsomes, time 70 min
CYP2C9 = CYP2C9 (Homo sapiens, UniProt P11712); assay: Inhibition of CYP2C9 (unknown origin) at 10 uM using diclofenac as substrate incubated for 10 mins in presence of NADPH by LC-MS/MS analysis relative to control; assay type: ADME; conditions: probe diclofenac
Sequence of CYP2C9 (P11712 whole entry): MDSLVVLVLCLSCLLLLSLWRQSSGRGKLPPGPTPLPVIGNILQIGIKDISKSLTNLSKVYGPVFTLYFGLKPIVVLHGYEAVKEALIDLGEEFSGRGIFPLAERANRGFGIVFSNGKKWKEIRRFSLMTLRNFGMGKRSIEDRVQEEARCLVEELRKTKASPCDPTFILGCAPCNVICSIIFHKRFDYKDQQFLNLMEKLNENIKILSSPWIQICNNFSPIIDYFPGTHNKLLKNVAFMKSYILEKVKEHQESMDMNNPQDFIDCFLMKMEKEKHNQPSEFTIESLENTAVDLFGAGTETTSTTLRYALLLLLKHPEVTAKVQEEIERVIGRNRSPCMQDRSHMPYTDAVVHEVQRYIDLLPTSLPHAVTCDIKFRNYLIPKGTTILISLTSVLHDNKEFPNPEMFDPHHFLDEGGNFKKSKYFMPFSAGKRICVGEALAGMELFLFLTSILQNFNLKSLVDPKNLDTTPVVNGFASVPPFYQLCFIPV

CYP1A2 = molecular target: T1, CYP1A2 (Homo sapiens, UniProt P05177); assay: Inhibition of CYP1A2 (unknown origin) at 10 uM using phenacetin as substrate incubated for 10 mins in presence of NADPH by LC-MS/MS analysis relative to control; assay type: ADME; conditions: probe phenacetin
T1 sequence (P05177 whole entry): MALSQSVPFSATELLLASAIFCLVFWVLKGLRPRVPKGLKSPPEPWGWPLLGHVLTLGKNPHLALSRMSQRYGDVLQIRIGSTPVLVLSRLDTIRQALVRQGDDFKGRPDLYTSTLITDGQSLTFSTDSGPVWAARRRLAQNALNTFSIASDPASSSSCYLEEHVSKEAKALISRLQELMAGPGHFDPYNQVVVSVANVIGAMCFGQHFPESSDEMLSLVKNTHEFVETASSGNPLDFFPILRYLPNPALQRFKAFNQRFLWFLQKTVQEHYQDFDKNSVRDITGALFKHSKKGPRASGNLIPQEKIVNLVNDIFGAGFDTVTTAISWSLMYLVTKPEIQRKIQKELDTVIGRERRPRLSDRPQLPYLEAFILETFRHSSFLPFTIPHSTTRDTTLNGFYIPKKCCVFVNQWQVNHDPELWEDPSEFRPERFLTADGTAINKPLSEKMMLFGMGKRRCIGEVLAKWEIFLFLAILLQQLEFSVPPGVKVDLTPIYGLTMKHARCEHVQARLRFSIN

hERG (KCNH2) = hERG (KCNH2) (Homo sapiens, UniProt Q12809); assay: Inhibition of hERG expressed in HEK293 cells at 1 uM at holding potential of -80 mV by whole cell patch clamp assay relative to control; assay type: toxicity, cell-based; conditions: HEK293 cells expressing hERG
Sequence of hERG (KCNH2) (Q12809 whole entry): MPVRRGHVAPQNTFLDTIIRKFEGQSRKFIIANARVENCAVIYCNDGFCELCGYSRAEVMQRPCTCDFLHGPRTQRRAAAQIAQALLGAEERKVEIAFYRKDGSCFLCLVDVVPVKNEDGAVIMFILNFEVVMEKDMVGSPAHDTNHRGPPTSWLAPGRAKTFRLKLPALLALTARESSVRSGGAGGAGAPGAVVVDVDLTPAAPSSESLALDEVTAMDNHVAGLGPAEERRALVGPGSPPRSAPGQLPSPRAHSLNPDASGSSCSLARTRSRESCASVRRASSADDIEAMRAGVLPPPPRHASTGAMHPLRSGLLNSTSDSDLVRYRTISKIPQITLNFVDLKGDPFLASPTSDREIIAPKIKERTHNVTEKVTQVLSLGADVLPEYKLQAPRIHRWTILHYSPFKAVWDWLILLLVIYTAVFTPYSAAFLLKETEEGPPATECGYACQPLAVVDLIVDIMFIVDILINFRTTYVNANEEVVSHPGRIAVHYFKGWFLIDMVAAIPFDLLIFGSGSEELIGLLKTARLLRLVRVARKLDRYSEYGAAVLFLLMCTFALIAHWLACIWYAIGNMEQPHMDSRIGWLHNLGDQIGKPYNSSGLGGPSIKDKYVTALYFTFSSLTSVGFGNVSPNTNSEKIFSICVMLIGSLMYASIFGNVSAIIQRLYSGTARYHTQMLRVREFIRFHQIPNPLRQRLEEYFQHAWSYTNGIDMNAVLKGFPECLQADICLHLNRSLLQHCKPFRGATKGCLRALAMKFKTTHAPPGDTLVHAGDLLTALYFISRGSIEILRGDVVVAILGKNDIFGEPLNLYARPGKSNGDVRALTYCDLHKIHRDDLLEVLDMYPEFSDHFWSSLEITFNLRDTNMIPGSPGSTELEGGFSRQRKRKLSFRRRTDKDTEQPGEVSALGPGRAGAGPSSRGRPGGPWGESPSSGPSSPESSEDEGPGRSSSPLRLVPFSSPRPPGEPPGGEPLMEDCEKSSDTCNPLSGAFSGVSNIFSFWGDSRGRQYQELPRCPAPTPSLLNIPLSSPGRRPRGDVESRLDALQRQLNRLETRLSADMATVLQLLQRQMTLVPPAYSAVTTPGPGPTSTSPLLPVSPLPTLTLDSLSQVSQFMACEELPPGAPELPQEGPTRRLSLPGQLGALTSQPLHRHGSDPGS

Hepatitis B virus [7] = assay: Antiviral activity against HBV infected human HePAD38 cells assessed as reduction in intracellular capsid content at 1 uM incubated for 6 days; assay type: functional, organism-based; conditions: time 6.0 day

| SMILES | CC50 [1] [µM] | EC50 (Hepatitis B virus [2]) [µM] | selectivity ratio [3] | also measured |
| --- | --- | --- | --- | --- |
| CCOC(=O)C1=C(CN2CCN(C(C(=O)O)c3ccc(OC)cc3)CC2)NC(c2nccs2)=NC1c1ccc(F)cc1Br (configuration not stated) | 29.2 | > 10 | < 2.9 |  |
| CCOC(=O)C1=C(CN2CCN(C(C(=O)O)c3cccc(C)c3)CC2)NC(c2nccs2)=NC1c1ccc(F)cc1Br (configuration not stated) | 22.4 | 2.52 | 8.9 |  |
| CCOC(=O)C1=C(CN2CCN(C(C(=O)O)c3ccc(Br)cc3)CC2)NC(c2nccs2)=NC1c1ccc(F)cc1Br (configuration not stated) | 22.4 | 1.24 | 18 |  |
| CCOC(=O)C1=C(CN2CCN(C(C(=O)O)c3ccc4c(c3)OCCO4)CC2)NC(c2nccs2)=NC1c1ccc(F)cc1Br (configuration not stated) | 22.4 | 0.044 | 508 |  |
| CCOC(=O)C1=C(CN2CCN(C(C(=O)O)c3ccoc3)CC2)NC(c2nccs2)=NC1c1ccc(F)cc1Br (configuration not stated) | > 50 | > 10 |  |  |
| CCOC(=O)C1=C(CN2CCN(C(C(=O)O)c3ccccc3C)CC2)NC(c2nccs2)=NC1c1ccc(F)cc1Br (configuration not stated) | 22.4 | 0.58 | 30.2 |  |
| CCOC(=O)C1=C(CN2CCN(C(C(=O)O)c3cccc(C#N)c3)CC2)NC(c2nccs2)=NC1c1ccc(F)cc1Br (configuration not stated) | 22.4 | > 10 | < 2.2 |  |
| CCOC(=O)C1=C(CN2CCN(C(C(=O)O)c3ccc(OC)c(OC)c3)CC2)NC(c2nccs2)=NC1c1ccc(F)cc1Br (configuration not stated) | > 50 | > 10 |  |  |
| CCOC(=O)C1=C(CN2CCN(C(C(=O)O)c3ccc(F)cc3)CC2)NC(c2nccs2)=NC1c1ccc(F)cc1Br (configuration not stated) | 29.2 | > 10 | < 2.9 |  |
| CCOC(=O)C1=C(CN2CCN(C(C(=O)O)c3cccc(F)c3)CC2)NC(c2nccs2)=NC1c1ccc(F)cc1Br (configuration not stated) | 22.4 | > 10 | < 2.2 |  |
| CC[C@@]1(c2ccccc2)NC(=O)N(Cc2ccccc2)C1=O |  |  |  | inhibition at 10 min, 10 µM (CYP2C19): 89.4% |
| CCOC(=O)C1=C(CN2CCN(C(C(=O)O)C3=CCCC3)CC2)NC(c2nccs2)=NC1c1ccc(F)cc1Br (configuration not stated) | > 50 | 0.5 | > 100 |  |
| CCOC(=O)C1=C(CN2CCN(C(C(=O)O)c3cccc4ccccc34)CC2)NC(c2nccs2)=NC1c1ccc(F)cc1Br (configuration not stated) | 22.4 | 0.85 | 26.3 |  |
| CCOC(=O)C1=C(CN2CCN(C(C(=O)O)c3ccc(C=O)cc3)CC2)NC(c2nccs2)=NC1c1ccc(F)cc1Br (configuration not stated) | > 50 | 3.87 | > 12.9 |  |
| C=C[C@H]1C[N@@]2CC[C@H]1C[C@@H]2[C@@H](O)c1ccnc2ccc(OC)cc12 [QUINIDINE] |  |  |  | inhibition at 10 min, 10 µM (CYP2D6): 95.6% |
| CCOC(=O)C1=C(CN2CCN(C(C(=O)O)c3ccc(C#N)cc3)CC2)NC(c2nccs2)=NC1c1ccc(F)cc1Br (configuration not stated) | 29.2 | 4.31 | 6.8 |  |
| CCOC(=O)C1=C(CN2CCN(C(C(=O)O)c3ccccc3O)CC2)NC(c2nccs2)=NC1c1ccc(F)cc1Br (configuration not stated) | 22.4 | 6.48 | 3.4 |  |
| C[C@]12CC[C@H]3[C@@H](CCC4=CC(=O)CC[C@@]43C)[C@@H]1CC[C@@H]2O [TESTOSTERONE] |  |  |  | CLint scaled [4]: 117 mL/min/kg; microsomal CLint [5]: 130 µL/min/mg; half-life [6]: 10.7 min |
| CCOC(=O)C1=C(CN2CCN(C(C(=O)O)c3ccccc3)CC2)NC(c2nccs2)=NC1c1ccc(F)cc1Br (configuration not stated) | > 50 | 2.69 | > 18.6 |  |
| CCOC(=O)C1=C(CN2CCN(C(C(=O)O)c3cccc(O)c3)CC2)NC(c2nccs2)=NC1c1ccc(F)cc1Br (configuration not stated) | > 50 | 2.38 | > 21 |  |

| SMILES | CC50 [1] [µM] | EC50 (Hepatitis B virus [2]) [µM] | selectivity ratio [3] | also measured |
| --- | --- | --- | --- | --- |
| CCOC(=O)C1=C(CN2CCN(C(C(=O)O)c3ccccc3OC)CC2)NC(c2nccs2)=NC1c1ccc(F)cc1Br (configuration not stated) | 50 | 2.35 | 21.3 |  |
| CCOC(=O)C1=C(CN2CCN(C(C(=O)O)c3ccc(O)cc3)CC2)NC(c2nccs2)=NC1c1ccc(F)cc1Br (configuration not stated) | 22.4 | 6.3 | 3.5 |  |
| CCOC(=O)C1=C(CN2CCN(C(C(=O)O)c3cccc(C(F)F)c3)CC2)NC(c2nccs2)=NC1c1ccc(F)cc1Br (configuration not stated) | 22.4 | > 10 | < 2.2 |  |
| CCOC(=O)C1=C(CN2CCN(C(C(=O)O)c3cccc(C(F)(F)F)c3)CC2)NC(c2nccs2)=NC1c1ccc(F)cc1Br (configuration not stated) | 22.4 | 9.98 | 2.2 |  |
| CCOC(=O)C1=C(CN2CCN(C(C(=O)O)c3cccc(C=O)c3)CC2)NC(c2nccs2)=NC1c1ccc(F)cc1Br (configuration not stated) | > 50 | > 10 | 2440 |  |
| CCOC(=O)C1=C(CN2CCN(C(C(=O)O)c3ccc(C)cc3)CC2)NC(c2nccs2)=NC1c1ccc(F)cc1Br (configuration not stated) | 22.4 | 8.48 | 2.6 |  |
| Nc1ccc(S(=O)(=O)Nc2ccnn2-c2ccccc2)cc1 [SULFAPHENAZOLE] |  |  |  | inhibition at 10 min, 10 µM (CYP2C9): 87.1% |
| O=C(O)Cc1ccccc1Nc1c(Cl)cccc1Cl [DICLOFENAC] |  |  |  | CLint scaled [4]: 212 mL/min/kg; microsomal CLint [5]: 235 µL/min/mg |
| O=c1cc(-c2ccccc2)oc2c1ccc1ccccc12 [ALPHA-NAPHTHOFLAVONE] |  |  |  | inhibition at 10 min, 10 µM (CYP1A2): 88.7% |
| CCOC(=O)C1=C(CN2CCN(C(C(=O)O)c3ccc4occc4c3)CC2)NC(c2nccs2)=NC1c1ccc(F)cc1Br (configuration not stated) | 22.4 | 2.28 | 9.8 |  |
| CCOC(=O)C1=C(CN2CCN(C(C(=O)O)c3ccsc3)CC2)NC(c2nccs2)=NC1c1ccc(F)cc1Br (configuration not stated) | > 50 | 0.07 | 962 |  |
| C=Cc1ccc(C(C(=O)O)N2CCN(CC3=C(C(=O)OCC)C(c4ccc(F)cc4Br)N=C(c4nccs4)N3)CC2)cc1 (configuration not stated) | 22.4 | 3.78 | 5.9 |  |
| CCOC(=O)C1=C(CN2CCN(C(C(=O)O)c3ccccc3C#N)CC2)NC(c2nccs2)=NC1c1ccc(F)cc1Br (configuration not stated) | 50 | 5.36 | 9.3 |  |
| COc1cc(N)c(Cl)cc1C(=O)NC1CCN(CCCOc2ccc(F)cc2)CC1OC (configuration not stated) [CISAPRIDE] |  |  |  | inhibition at 1 µM (hERG (KCNH2)): 96.7% |
| CCOC(=O)C1=C(CN2CCN(C(C(=O)O)C3=CCCCC3)CC2)NC(c2nccs2)=NC1c1ccc(F)cc1Br (configuration not stated) | 29.2 | 0.84 | 34.8 |  |
| Nc1ccn([C@@H]2CS[C@H](CO)O2)c(=O)n1 [LAMIVUDINE] | > 50 | 0.09 |  | Activity (Hepatitis B virus [7]): inactive |
| CCOC(=O)C1=C(CN2CCN(C(C(=O)O)c3ccc(Cl)cc3)CC2)NC(c2nccs2)=NC1c1ccc(F)cc1Br (configuration not stated) | 22.4 | 0.39 | 57.3 |  |
| C#Cc1cccc(C(C(=O)O)N2CCN(CC3=C(C(=O)OCC)C(c4ccc(F)cc4Br)N=C(c4nccs4)N3)CC2)c1 (configuration not stated) | 22.4 | > 10 | < 2.2 |  |
| CCOC(=O)C1=C(CN2CCN(C(C(=O)O)c3ccc(CC)cc3)CC2)NC(c2nccs2)=NC1c1ccc(F)cc1Br (configuration not stated) | 22.4 | 0.46 | 41.4 |  |
| CCOC(=O)C1=C(CN2CCN(C(C(=O)O)c3ccc4c(c3)OCO4)CC2)NC(c2nccs2)=NC1c1ccc(F)cc1Br (configuration not stated) | 22.4 | 2.46 | 9.1 |  |
